Activity calls are given as the source filed them.
How the values were obtained:
[1] = biological target: T1, Sentrin-specific protease 6 (Homo sapiens, UniProt Q9GZR1); format: functional;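 also: Luminescence-based dose-response confirmatory assay of SENP6 inhibition, following up an ultra-high-throughput screen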
T1 sequence (Q9GZR1 whole entry): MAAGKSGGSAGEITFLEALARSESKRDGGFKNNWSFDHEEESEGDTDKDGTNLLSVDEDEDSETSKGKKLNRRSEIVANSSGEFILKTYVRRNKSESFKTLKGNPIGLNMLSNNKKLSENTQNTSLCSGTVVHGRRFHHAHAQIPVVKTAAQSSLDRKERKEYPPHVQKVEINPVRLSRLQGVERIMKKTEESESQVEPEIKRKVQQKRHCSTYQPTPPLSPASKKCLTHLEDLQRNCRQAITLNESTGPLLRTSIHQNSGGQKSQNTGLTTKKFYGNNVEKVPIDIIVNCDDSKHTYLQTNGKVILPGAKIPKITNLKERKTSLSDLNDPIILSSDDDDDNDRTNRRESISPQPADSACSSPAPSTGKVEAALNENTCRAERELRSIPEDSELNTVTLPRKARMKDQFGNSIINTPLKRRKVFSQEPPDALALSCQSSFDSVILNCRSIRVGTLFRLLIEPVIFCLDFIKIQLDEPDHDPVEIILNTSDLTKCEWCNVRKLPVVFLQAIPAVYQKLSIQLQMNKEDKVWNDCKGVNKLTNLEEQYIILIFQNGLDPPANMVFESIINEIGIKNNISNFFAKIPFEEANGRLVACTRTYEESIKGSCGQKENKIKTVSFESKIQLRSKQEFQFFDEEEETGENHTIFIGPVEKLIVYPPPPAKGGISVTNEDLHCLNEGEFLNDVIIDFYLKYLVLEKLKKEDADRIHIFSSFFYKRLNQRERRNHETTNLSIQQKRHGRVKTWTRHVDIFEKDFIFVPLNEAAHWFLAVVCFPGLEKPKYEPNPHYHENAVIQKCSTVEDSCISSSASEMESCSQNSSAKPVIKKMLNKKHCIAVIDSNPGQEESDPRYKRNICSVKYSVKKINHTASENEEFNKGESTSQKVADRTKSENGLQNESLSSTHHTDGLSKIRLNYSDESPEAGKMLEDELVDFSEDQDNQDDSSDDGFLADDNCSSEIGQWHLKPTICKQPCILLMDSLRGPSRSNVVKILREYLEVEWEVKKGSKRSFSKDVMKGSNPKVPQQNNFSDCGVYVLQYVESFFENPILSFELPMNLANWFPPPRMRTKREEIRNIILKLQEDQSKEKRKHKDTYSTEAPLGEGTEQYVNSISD

Protein skinhead-1 = biological target: T2, Protein skinhead-1 (Caenorhabditis elegans, UniProt P34707); format: functional
T2 sequence (P34707 whole entry): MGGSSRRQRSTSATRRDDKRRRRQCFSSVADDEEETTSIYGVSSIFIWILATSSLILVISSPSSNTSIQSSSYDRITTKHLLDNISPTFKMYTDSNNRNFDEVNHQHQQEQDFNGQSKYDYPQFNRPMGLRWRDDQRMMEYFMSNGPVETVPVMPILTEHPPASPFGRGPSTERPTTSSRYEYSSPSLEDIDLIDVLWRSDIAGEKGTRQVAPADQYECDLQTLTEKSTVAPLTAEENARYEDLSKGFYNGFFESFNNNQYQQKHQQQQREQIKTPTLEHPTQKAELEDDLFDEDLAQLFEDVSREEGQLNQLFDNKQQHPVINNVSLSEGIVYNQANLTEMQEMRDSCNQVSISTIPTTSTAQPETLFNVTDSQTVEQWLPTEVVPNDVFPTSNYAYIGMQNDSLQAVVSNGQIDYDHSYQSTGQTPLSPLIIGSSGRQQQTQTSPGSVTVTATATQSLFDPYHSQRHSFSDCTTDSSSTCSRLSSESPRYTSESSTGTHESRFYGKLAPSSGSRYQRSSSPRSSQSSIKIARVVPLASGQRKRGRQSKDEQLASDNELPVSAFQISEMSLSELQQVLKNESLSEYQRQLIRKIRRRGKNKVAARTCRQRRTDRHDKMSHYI

[2] = biological target: T3, Sentrin-specific protease 7 (Homo sapiens, UniProt Q9BQF6); format: functional;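 also: Luminescence-based dose-response confirmation of ultra-high-throughput screening hits, measuring inhibition of SENP7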
T3 sequence (Q9BQF6 whole entry): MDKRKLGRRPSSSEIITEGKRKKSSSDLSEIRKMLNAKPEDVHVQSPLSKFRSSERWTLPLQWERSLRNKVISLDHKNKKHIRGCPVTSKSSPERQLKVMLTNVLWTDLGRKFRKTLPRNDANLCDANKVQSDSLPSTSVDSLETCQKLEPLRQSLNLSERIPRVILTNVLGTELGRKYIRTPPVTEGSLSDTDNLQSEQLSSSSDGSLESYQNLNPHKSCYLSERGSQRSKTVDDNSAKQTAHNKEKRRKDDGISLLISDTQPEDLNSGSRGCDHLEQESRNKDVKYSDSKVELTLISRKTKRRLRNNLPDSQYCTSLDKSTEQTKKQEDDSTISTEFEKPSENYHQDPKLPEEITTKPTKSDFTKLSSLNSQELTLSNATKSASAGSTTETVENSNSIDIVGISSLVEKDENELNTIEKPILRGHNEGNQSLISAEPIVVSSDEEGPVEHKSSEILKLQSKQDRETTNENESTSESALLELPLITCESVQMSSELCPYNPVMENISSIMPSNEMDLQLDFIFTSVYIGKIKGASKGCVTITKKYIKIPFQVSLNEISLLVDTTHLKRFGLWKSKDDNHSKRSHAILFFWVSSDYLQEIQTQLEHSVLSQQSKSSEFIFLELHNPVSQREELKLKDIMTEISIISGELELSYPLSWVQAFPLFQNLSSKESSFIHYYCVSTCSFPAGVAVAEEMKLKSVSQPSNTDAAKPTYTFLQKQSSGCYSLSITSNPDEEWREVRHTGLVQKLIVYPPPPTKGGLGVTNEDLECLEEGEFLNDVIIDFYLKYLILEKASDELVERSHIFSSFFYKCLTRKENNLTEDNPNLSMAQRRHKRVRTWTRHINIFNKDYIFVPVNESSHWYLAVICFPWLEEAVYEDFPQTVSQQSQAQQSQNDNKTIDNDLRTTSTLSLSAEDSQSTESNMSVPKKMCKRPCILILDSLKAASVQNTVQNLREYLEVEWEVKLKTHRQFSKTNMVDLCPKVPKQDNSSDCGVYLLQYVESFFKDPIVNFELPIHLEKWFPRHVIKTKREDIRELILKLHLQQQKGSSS

Caspase-3 = biological target: T4, Caspase-3 (Homo sapiens, UniProt P42574); format: functional;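 also: Dose-response selectivity test against caspase-3 for candidate inhibitors of sentrin-specific proteases (SENPs)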
T4 sequence (P42574 whole entry): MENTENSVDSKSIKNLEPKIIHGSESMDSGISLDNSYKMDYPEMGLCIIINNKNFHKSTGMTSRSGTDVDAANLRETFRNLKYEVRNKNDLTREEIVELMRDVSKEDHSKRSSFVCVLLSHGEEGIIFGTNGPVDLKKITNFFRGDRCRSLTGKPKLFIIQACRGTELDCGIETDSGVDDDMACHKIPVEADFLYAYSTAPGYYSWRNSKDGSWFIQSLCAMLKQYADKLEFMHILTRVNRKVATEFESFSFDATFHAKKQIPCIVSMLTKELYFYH

[3] = biological target: T5, Sentrin-specific protease 8 (Homo sapiens, UniProt Q96LD8); format: functional;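 also: luminescence read-out of SENP8 inhibition, dose-response confirmation following an ultra-high-throughput screen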
T5 sequence (Q96LD8 whole entry): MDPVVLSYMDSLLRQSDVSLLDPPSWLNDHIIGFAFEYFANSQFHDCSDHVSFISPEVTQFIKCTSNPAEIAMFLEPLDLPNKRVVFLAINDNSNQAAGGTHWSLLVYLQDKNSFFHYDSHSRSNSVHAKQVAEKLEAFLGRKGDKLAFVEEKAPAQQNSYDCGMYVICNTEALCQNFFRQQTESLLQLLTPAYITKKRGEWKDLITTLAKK

[4] = Luminescence Cell-Based Dose Response HTS to Identify Activators of Luciferase Translation or Activity in H4 […] Cells. [Related pubchem assays: 1829 (Project Summary), 1814 (Primary HTS)]; format: functional
[5] = Luminescence Cell-Based Dose Confirmation HTS to Identify Activators of 5'UTR Stem-Loop Driven Alpha-Synuclein mRNA Translation in H4 Neuroglioblastoma Cells. [Related pubchem assays: 1829 (Project Summary), 1814 (Primary HTS)]; format: functional
H4 = experiment: Luminescence Cell-Based Dose Response HTS to Identify Activators of 5'UTR Stem-Loop Driven Prion Protein mRNA Translation in H4 Neuroglioblastoma Cells. [Related pubchem assays: 1829 (Project Summary), 1814 (Primary HTS)]; format: functional; conditions: Homo sapiens
[6] = biological target: T6, Adenosylmethionine-8-amino-7-oxononanoate aminotransferase (Mycobacterium tuberculosis, UniProt P9WQ81); experiment: Mycobacterium tuberculosis BioA enzyme inhibitor Measured in Biochemical System Using Plate Reader - 2163-02_Inhibitor_Dose_CherryPick_Activity.; format: functional, Mycobacterium tuberculosis UT205
T6 sequence (P9WQ81 whole entry): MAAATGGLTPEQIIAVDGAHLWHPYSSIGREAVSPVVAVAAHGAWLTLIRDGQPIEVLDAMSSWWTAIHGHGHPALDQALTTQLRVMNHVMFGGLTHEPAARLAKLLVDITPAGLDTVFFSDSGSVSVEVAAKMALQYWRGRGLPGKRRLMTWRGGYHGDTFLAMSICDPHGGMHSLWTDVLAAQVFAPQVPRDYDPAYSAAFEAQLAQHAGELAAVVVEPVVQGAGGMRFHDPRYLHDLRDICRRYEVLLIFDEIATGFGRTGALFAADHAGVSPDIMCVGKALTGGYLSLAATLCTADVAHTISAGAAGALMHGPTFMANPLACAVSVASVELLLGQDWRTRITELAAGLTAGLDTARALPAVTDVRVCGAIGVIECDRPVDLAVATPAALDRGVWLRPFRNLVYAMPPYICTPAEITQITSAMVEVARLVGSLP

[7] = NIH3T3 cell viability loss – ATP luminescence, mouse fibroblasts, counter-screen, dose response (AID 2010); format: functional, cell-based;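 also: cells exposed to compound for about 90 hours before reading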
[8] = biological target: T7, Apoptotic protease-activating factor 1 (Homo sapiens, UniProt O14727); format: functional
T7 sequence (O14727 whole entry): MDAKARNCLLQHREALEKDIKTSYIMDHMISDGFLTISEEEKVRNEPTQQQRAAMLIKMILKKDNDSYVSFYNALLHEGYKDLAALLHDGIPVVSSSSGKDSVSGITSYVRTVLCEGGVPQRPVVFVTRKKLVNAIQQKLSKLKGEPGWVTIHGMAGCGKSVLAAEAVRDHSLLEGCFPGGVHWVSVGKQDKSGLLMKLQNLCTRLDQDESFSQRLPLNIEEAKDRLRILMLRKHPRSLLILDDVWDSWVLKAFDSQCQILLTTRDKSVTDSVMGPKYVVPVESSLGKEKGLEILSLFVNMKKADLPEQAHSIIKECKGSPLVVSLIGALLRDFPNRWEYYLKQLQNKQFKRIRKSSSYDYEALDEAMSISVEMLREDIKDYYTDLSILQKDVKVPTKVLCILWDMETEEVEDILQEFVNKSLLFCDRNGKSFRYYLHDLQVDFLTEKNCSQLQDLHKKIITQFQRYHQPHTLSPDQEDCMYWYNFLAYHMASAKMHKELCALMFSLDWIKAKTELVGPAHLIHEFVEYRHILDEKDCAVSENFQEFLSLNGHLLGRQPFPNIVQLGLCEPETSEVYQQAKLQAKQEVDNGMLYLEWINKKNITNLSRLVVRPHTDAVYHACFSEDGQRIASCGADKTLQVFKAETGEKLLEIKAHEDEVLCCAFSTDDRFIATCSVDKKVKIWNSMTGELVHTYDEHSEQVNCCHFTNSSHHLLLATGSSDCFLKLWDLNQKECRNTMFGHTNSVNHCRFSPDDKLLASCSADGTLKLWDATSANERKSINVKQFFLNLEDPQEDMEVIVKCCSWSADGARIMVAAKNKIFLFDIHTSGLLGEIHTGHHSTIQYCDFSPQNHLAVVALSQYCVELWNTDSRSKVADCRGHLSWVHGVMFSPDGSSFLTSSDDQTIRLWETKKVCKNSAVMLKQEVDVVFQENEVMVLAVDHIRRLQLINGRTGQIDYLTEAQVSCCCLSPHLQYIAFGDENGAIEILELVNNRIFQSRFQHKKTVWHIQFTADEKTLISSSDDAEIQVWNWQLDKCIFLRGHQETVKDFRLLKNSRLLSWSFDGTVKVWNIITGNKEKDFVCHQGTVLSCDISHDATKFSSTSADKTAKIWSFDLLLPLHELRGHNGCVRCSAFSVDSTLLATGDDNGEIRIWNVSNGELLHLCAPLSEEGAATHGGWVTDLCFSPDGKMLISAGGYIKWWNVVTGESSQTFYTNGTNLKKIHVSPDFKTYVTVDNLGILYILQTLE

[9] = Trypanosoma cruzi growth suppression in host cells – NIH3T3 host cells, beta-gal luminescence, confirmation (AID 2044); format: functional, cell-based;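 also: intracellular parasites grown in NIH/3T3 mouse fibroblasts as host cells; luminescent beta-galactosidase reporter signal from transgenic T. cruzi replicating inside host cells; inhibitors lower the luminescence signal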

For `c1ccc(CCNc2ncnc3c2cnn3-c2ccccc2)cc1`, the IC50 [1] was 19.6 µM (active), the IC50 (Protein skinhead-1) was > 100 µM (inactive) and the IC50 [2] was 7.14 µM (active). The IC50 (Caspase-3) was 22.5 µM (active) and the IC50 [3] was 22.9 µM (active).
With `O=C(O)c1ccc(COc2ccccc2[N+](=O)[O-])o1` the IC50 [1] was 35.6 µM (active), the IC50 [2] was 10.5 µM (active) and the IC50 (Caspase-3) was > 100 µM (inactive). For the same compound, the IC50 [3] was 31.3 µM (active).
With `COc1ccc(-c2noc(Cc3cccs3)n2)cc1` the IC50 [1] was 31.8 µM (active), the EC50 [4] was 0.501 µM (active) and the EC50 [5] was 24.9 µM (active). For the same compound, the EC50 (H4) was > 120 µM (not active), the IC50 [2] was 9.93 µM (active) and the IC50 (Caspase-3) was 27.3 µM (active). The IC50 [3] was 25 µM (active).
For `O=C(Nc1ccc(N2CCOCC2)c(Cl)c1)c1cccnc1`, the AC50 [6] was 13.3 µM (active).
In the case of `COc1ccc(C/N=C/c2[nH]c3ccc(Br)c(Cl)c3c2O)cc1`, the EC50 [7] was > 60 µM (not active), the IC50 [8] was 59.2 µM (active) and the EC50 [9] was 1.31 µM (active).
In the case of `CN(Cc1ccccc1)C(=O)CCS(=O)(=O)c1ccc2c(c1)NC(=O)CS2`, the AC50 [6] was 3.51 µM (active).
With `O=C(N/N=C/C(Cl)=C\c1ccccc1)c1cccs1` the IC50 [1] was > 100 µM (inactive), the IC50 [2] was 5.83 µM (active) and the IC50 (Caspase-3) was 28.7 µM (active). For the same compound, the IC50 [3] was > 100 µM (inactive).
For `O=C(C[C@@H]1C[C@@H]2c3cc(NC(=O)c4cccnc4)ccc3O[C@@H]2[C@@H](CO)O1)NCc1cccnc1`, the AC50 [6] was 10.7 µM (active).
